# Where two headings read alike, the source gives them in different places.
# Legend:
# HCV NS3 protease domain = biological target: T1, HCV NS3 protease domain (Hepatitis C virus genotype 1b, UniProt Q9WMX2); assay: biochemical; details: apparent Ki class
# T1 construct: The first 181 amino acids of NS3 (residues 1027-1207 of the viral polyprotein); hexa-histidine (C); made in house; host or cells: E. coli BL21/DE3 pLysS
# [1] = biological target: T2, full-length hepatitis C viral protein NS3•4A (Hepatitis C virus genotype 1a, UniProt P27958); assay: biochemical; parameters: species or system HCV sub-type strain 1a; details: apparent Ki class
# T2 construct: hexa-histidine (N); made in house; host or cells: Sf9 insect cells (baculovirus, pVL1392)
# [2] = Enzyme Assay 1 (HCV NS3 Protease Domain Peptide Cleavage Assay) activity
# [3] = Enzyme Assay 2 (HCV NS3 Peptide Cleavage Assay) activity
Structure (SMILES),Ki (HCV NS3 protease domain; [2]) [nM],"Ki [1, 3] [nM]",Ki (HCV NS3 protease domain; read-out: Enzyme Assay 1 (HCV NS3 Protease Domain Peptide Cleavage Assay) activity) [nM],Ki ([1]; read-out: Enzyme Assay 2 (HCV NS3 Peptide Cleavage Assay) activity) [nM]
CCC[C@H](NC(=O)[C@@H]1C[C@]2(CC(c3cccc(Cl)c3)=NO2)CN1C(=O)C(NC(=O)CC1C[C@@H](C)O[C@H](C)C1)C(C)(C)C)C(=O)C(=O)NC1CC1 (some centres unmarked) [Compound 153],100 to 500,100 to 500,–,–
CCC[C@H](NC(=O)[C@@H]1C[C@]2(CC(c3cccc(Cl)c3)=NO2)CN1C(=O)[C@@H](NC(=O)CC1CCCCC1)C(C)(C)C)C(=O)C(=O)NC(C)Cc1c[nH]c2ccc(C(C)=O)cc12 (some centres unmarked) [Compound 138],> 500,> 500,–,–
C=C[C@@H]1C[C@]1(NC(=O)[C@@H]1C[C@]2(CC(c3cccc(Cl)c3)=NO2)CN1C(=O)[C@@H](NC(=O)CC1CCCCC1)C(C)(C)C)C(=O)NS(=O)(=O)NC1CC1 [Compound 115],> 500,100 to 500,–,–
CCC[C@H](NC(=O)[C@@H]1C[C@]2(CC(c3cccc(Cl)c3)=NO2)CN1C(=O)[C@@H](NC(=O)CC1CCCCC1)C(C)(C)C)C(=O)C(=O)Nc1cc(OC)ccc1OC [Compound 84],> 500,> 500,–,–
CCC[C@H](NC(=O)[C@@H]1C[C@]2(CC(c3ccc4c(c3)CCC(C)(C)O4)=NO2)CN1C(=O)[C@@H](NC(=O)CC1CCCCC1)C(C)(C)C)C(=O)C(=O)NC1CC1 [Compound 204],100 to 500,100 to 500,–,–
CCC[C@H](NC(=O)[C@@H]1C[C@]2(CC(c3cccc(Cl)c3)=NO2)CN1C(=O)[C@@H](NC(=O)CC1CCCCC1)C(C)(C)C)C(=O)C(=O)NC[C@H]1CCCO1 [Compound 277],> 500,100 to 500,–,–
CCC[C@H](NC(=O)[C@@H]1C[C@]2(CC(c3cccc(Cl)c3)=NO2)CN1C(=O)[C@@H](NC(=O)CC1CCCCC1)C(C)(C)C)C(=O)C(=O)NC(C)C [Compound 275],100 to 500,100 to 500,–,–
CCC[C@H](NC(=O)[C@@H]1C[C@]2(CC(c3ccc(OC)c(C)c3)=NO2)CN1C(=O)[C@@H](NC(=O)CC1CCCCC1)C(C)(C)C)C(=O)C(=O)NC1CC1 [Compound 500],100 to 500,< 100,–,–
C=C[C@@H]1C[C@]1(NC(=O)[C@@H]1C[C@]2(CC(c3cccc(Cl)c3)=NO2)CN1C(=O)[C@@H](NC(=O)NC(C)(C)C)C(C)(C)C)C(=O)O [Compound 457],> 500,> 500,–,–
CCC[C@H](NC(=O)[C@@H]1C[C@]2(CC(c3cccc(Cl)c3)=NO2)CN1C(=O)[C@H](NS(=O)(=O)c1ccc(C)cc1)c1ccccc1)C(=O)C(=O)NC1CC1 [Compound 476],100 to 500,100 to 500,–,–
CCC[C@H](NC(=O)[C@@H]1C[C@]2(CC(c3cccc(Cl)c3)=NO2)CN1C(=O)[C@@H](NC(=O)CC1CCCCC1)C(C)(C)C)C(=O)C(=O)Nc1ccon1 [Compound 293],> 500,> 500,–,–
CCC[C@H](NC(=O)[C@@H]1C[C@]2(CC(c3cccc(Cl)c3)=NO2)CN1C(=O)[C@@H](NC(=O)CC1(O)CCCCC1)C(C)(C)C)C(=O)C(=O)NC1CC1 [Compound 233],100 to 500,< 100,–,–
CCC[C@H](NC(=O)[C@@H]1C[C@]2(CC(c3cc(Cl)c4c(c3)CCC(C)(C)O4)=NO2)CN1C(=O)[C@@H](NC(=O)CC1CCCCC1)C(C)(C)C)C(=O)C(=O)NC1CC1 [Compound 74],100 to 500,< 100,–,–
CCC[C@H](NC(=O)[C@@H]1C[C@]2(CC(c3cccc(Cl)c3)=NO2)CN1C(=O)[C@@H](NC(=O)[C@@H]1CCC(=O)N1Cc1cccc(Cl)c1)C(C)(C)C)C(=O)C(=O)NC1CC1 [Compound 377],100 to 500,< 100,–,–
CCC[C@H](NC(=O)[C@@H]1C[C@]2(CC(c3cccc(Cl)c3)=NO2)CN1C(=O)[C@@H](NC(=O)CC1CCCCC1)C(C)(C)C)C(=O)C(=O)NC(c1ccccc1)c1ccccn1 (some centres unmarked) [Compound 120],> 500,> 500,–,–
CCC[C@H](NC(=O)[C@@H]1C[C@]2(CC(c3cccc(Cl)c3)=NO2)CN1C(=O)[C@@H](NC(=O)CC1CCCCC1)C(C)(C)C)C(=O)C(=O)NC(CC)CC [Compound 300],100 to 500,100 to 500,–,–

Structure (SMILES),Ki (HCV NS3 protease domain; [2]) [nM],"Ki [1, 3] [nM]",Ki (HCV NS3 protease domain; read-out: Enzyme Assay 1 (HCV NS3 Protease Domain Peptide Cleavage Assay) activity) [nM],Ki ([1]; read-out: Enzyme Assay 2 (HCV NS3 Peptide Cleavage Assay) activity) [nM]
CCC[C@H](NC(=O)[C@@H]1C[C@]2(CC(c3cccc(Cl)c3)=NO2)CN1C(=O)[C@@H](NC(=O)CC1CCC(C)(O)CC1)C(C)(C)C)C(=O)C(=O)NC1CC1 (some centres unmarked) [Compound 575],–,–,< 100,< 100
CCC[C@H](NC(=O)[C@@H]1C[C@]2(CC(c3cccc(Cl)c3)=NO2)CN1C(=O)[C@@H](NC(=O)CC1CCCCC1)C(C)(C)C)C(=O)C(=O)NC1Cc2ccccc2C1 [Compound 6],> 500,> 500,–,–
C=C[C@@H]1C[C@]1(NC(=O)[C@@H]1C[C@]2(CC(CC)=NO2)CN1C(=O)[C@@H](NC(=O)OC1CCCC1)C(C)(C)C)C(=O)NS(=O)(=O)C1CC1 [Compound 438],> 500,100 to 500,–,–
CCC[C@H](NC(=O)[C@@H]1C[C@]2(CC(c3cccc(Cl)c3)=NO2)CN1C(=O)[C@H](Cc1ccccc1C(F)(F)F)NC(=O)CC1CCCCC1)C(=O)C(=O)NC1CC1 [Compound 289],> 500,100 to 500,–,–
CC(C)(C)OC(=O)N[C@H]1CCCCC/C=C\[C@@H]2C[C@@]2(C(=O)O)NC(=O)[C@@H]2C[C@]3(CC(C(=O)c4ccccc4)=NO3)CN2C1=O [Compound 320],> 500,> 500,–,–
CCC[C@H](NC(=O)[C@@H]1C[C@]2(CC(c3cccc(Cl)c3)=NO2)CN1C(=O)CCn1c(=O)oc2ccccc21)C(=O)C(=O)NC1CC1 [Compound 376],> 500,> 500,–,–
CCC[C@H](NC(=O)[C@@H]1C[C@]2(CC(c3cccc(Cl)c3)=NO2)CN1C(=O)[C@@H](NC(=O)[C@@H]1C[C@H]1c1ccccc1)C(C)(C)C)C(=O)C(=O)NC1CC1 [Compound 271],100 to 500,< 100,–,–
CCC[C@H](NC(=O)[C@@H]1C[C@]2(CC(c3cccc(Cl)c3)=NO2)CN1C(=O)[C@H](CC(C)C)NS(=O)(=O)c1ccc(OC)cc1)C(=O)C(=O)NC1CC1 [Compound 587],> 500,100 to 500,–,–
CCC[C@H](NC(=O)[C@@H]1C[C@]2(CC(c3cccc(Cl)c3)=NO2)CN1C(=O)[C@@H](NC(=O)CC1CCCCC1)C(C)(C)C)C(=O)C(=O)NCc1cccc(-n2cccn2)c1 [Compound 298],100 to 500,100 to 500,–,–
CCC[C@H](NC(=O)[C@@H]1CC2(CC(c3cccc(Cl)c3)=NO2)CN1C(=O)[C@H](Cc1ccc(OC)cc1)NC(C)=O)C(=O)C(=O)NC1CC1 (some centres unmarked) [Compound 88],> 500,100 to 500,–,–
CCC[C@H](NC(=O)[C@@H]1C[C@]2(CC(c3cccc(Cl)c3)=NO2)CN1C(=O)[C@@H](NC(=O)CC1CCCCC1)C(C)(C)C)C(=O)C(=O)NC1CCCCC1 [Compound 99],> 500,> 500,–,–
CCC[C@H](NC(=O)[C@@H]1C[C@]2(CC(c3cccc(Cl)c3)=NO2)CN1C(=O)[C@H](Cc1csc2ccccc12)NC(=O)CC1CCCCC1)C(=O)C(=O)NC1CC1 [Compound 336],> 500,> 500,–,–
CCC[C@H](NC(=O)[C@@H]1C[C@]2(CC(c3cccc(Cl)c3)=NO2)CN1C(=O)c1cc2cc(Br)ccc2[nH]1)C(=O)C(=O)NC1CC1 [Compound 46],> 500,> 500,–,–
CCC[C@H](NC(=O)[C@@H]1C[C@]2(CC(c3cccc(Cl)c3)=NO2)CN1C(=O)[C@@H](NC(=O)CC1CCCCC1)C(C)(C)C)C(=O)C(=O)NCc1ccco1 [Compound 441],> 500,100 to 500,–,–
CCC[C@H](NC(=O)[C@@H]1C[C@]2(CC(c3cccc(Cl)c3)=NO2)CN1C(=O)[C@@H](NC(=O)CC1CCCCC1)C(C)(C)C)C(=O)C(=O)NCCc1cccc(OC)c1 [Compound 540],100 to 500,100 to 500,–,–
